Assay results: US10669283B2, “Compound and pharmacologically acceptable salt thereof” (MEIJI SEIKA PHARMA CO., LTD., priority 2016, dated 2020)

The molecules below were run on PDE4 (assay: PDE4 inhibition, scintillation proximity assay (SPA)). Conditions: scintillation proximity assay (SPA); evaluated as classes A, B, C; read-out: PDE4 Inhibitory Activity (concentration for the inhibition rate of 50%).
Assay type: biochemical
Outline: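 Scintillation proximity read-out: [2,8-3H]-cAMP hydrolysis by PDE4 ran 120 min at room temperature in Tris-HCl pH 7.4 buffer with 8.3 mM MgCl2, 1.7 mM EGTA and 3 mg/mL BSA. Bead-bound product (YSi-SPA with ZnSO4, 15 min) counted; blank lacks enzyme, control has DMSO only.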

| SMILES | IC50 [nM] |
| --- | --- |
| FC(F)(F)COC(c1ccc(-c2nccs2)c2oc(N3CC4CC(C3)N4)nc12)C(F)(F)F (stereo not drawn) [Example 223, 2-(3,6-Diazabicyclo[3.1.1]heptan-3-yl)-7-(thiazol-2-yl)-4-(2,2,2-trifluoro-1-(2,2,2-trifluoroethoxy)ethyl)benzo[d]oxazole] | < 100 |
| CC(O)(c1ccc(-c2nccs2)c2oc(N3CC4CC(C3)N4)nc12)C(F)(F)F (stereo not drawn) [Example 234, 2-(2-(3,6-Diazabicyclo[3.1.1]heptan-3-yl)-7-(thiazol-2-yl)benzo[d]oxazol-4-yl)-1,1,1-trifluoropropan-2-ol] | < 100 |
| N#CCOC(c1cc(-c2nccs2)c2oc(N3CC4CC(C3)N4)nc2c1)C(F)(F)F (stereo not drawn) [Example 152, 2-(1-(2-(3,6-Diazabicyclo[3.1.1]heptan-3-yl)-7-(thiazol-2-yl)benzo[d]oxazol-5-yl)-2,2,2-trifluoroethoxy)acetonitrile] | < 100 |
| CCOC(c1ccc(-c2nccs2)c2oc(N3CC4CCC(C3)N4)nc12)C(F)(F)F (stereo not drawn) [Example 220, 2-(3,8-Diazabicyclo[3.2.1]octan-3-yl)-4-(1-ethoxy-2,2,2-trifluoroethyl)-7-(thiazol-2-yl)benzo[d]oxazole] | < 100 |
| CC(O)c1ccc(-c2nccs2)c2oc(N3CC4CCC(C3)N4)nc12 (stereo not drawn) [Example 124, 1-(2-(3,8-Diazabicyclo[3.2.1]octan-3-yl)-7-(thiazol-2-yl)benzo[d]oxazol-4-yl)ethan-1-ol] | < 100 |
| CC(C)(O)COc1ccc(-c2nccs2)c2oc(N3CC4CCC(C3)N4)nc12 [Example 264, 1-((2-(3,8-Diazabicyclo[3.2.1]octan-3-yl)-7-(thiazol-2-yl)benzo[d]oxazol-4-yl)oxy)-2-methylpropan-2-ol] | < 100 |
| OCc1ccc(-c2nccs2)c2oc(N3CC4CCCC(C3)N4)nc12 [Example 134, (2-(3,9-Diazabicyclo[3.3.1]nonan-3-yl)-7-(thiazol-2-yl)benzo[d]oxazol-4-yl)methanol] | < 100 |
| COc1ccc(-c2nccs2)c2oc(N3CC4CCC(C3)N4)nc12 [Example 75, 2-(3,8-Diazabicyclo[3.2.1]octan-3-yl)-4-methoxy-7-(thiazol-2-yl)benzo[d]oxazole] | < 100 |
| OCCOC(c1ccc(-c2nccs2)c2oc(N3CC4CC(C3)N4)nc12)C(F)(F)F (stereo not drawn) [Example 227, 2-(1-(2-(3,6-Diazabicyclo[3.1.1]heptan-3-yl)-7-(thiazol-2-yl)benzo[d]oxazol-4-yl)-2,2,2-trifluoroethoxy)ethan-1-ol] | < 100 |
| FC(F)(F)c1c(Cl)cc(-n2cccn2)c2oc(N3CC4CCC(C3)N4)nc12 [Example 15, 2-(3,8-Diazabicyclo[3.2.1]octan-3-yl)-5-chloro-7-(1H-pyrazol-1-yl)-4-(trifluoromethyl)benzo[d]oxazole] | < 100 |
| CCOC(=O)c1cc(-c2nccs2)c2oc(N3CC4CC(C3)N4)nc2c1 [Example 87, Ethyl 2-(3,6-diazabicyclo[3.1.1]heptan-3-yl)-7-(thiazol-2-yl)benzo[d]oxazole-5-carboxylate] | < 100 |
| CCOC(=O)c1cc(-c2nccs2)c2oc(N3CC4CCCC(C3)N4)nc2c1C(F)(F)F [Example 164, Ethyl 2-(3,9-diazabicyclo[3.3.1]nonan-3-yl)-7-(thiazol-2-yl)-4-(trifluoromethyl)benzo[d]oxazole-5-carboxylate] | < 100 |
| CC(O)(c1cc(-c2nccs2)c2oc(N3CC4CCC(C3)N4)nc2c1OC(F)(F)F)C(F)(F)F (stereo not drawn) [Example 217, 2-(2-(3,8-Diazabicyclo[3.2.1]octan-3-yl)-7-(thiazol-2-yl)-4-(trifluoromethoxy)benzo[d]oxazol-5-yl)-1,1,1-trifluoropropan-2-ol] | < 100 |
| OC(O)(c1cc(-c2nccs2)c2oc(N3CC4CCC(C3)N4)nc2c1)C(F)(F)F [Example 157, 1-(2-(3,8-Diazabicyclo[3.2.1]octan-3-yl)-7-(thiazol-2-yl)benzo[d]oxazol-5-yl)-2,2,2-trifluoroethane-1,1-diol] | < 100 |
| CC(C)(O)c1cc(-c2nccs2)c2oc(N3CC4CC(C3)N4)nc2c1OC(F)(F)F [Example 196, 2-(2-(3,6-Diazabicyclo[3.1.1]heptan-3-yl)-7-(thiazol-2-yl)-4-(trifluoromethoxy)benzo[d]oxazol-5-yl)propan-2-ol] | < 100 |
| O=C(c1cc(-c2nccs2)c2oc(N3CC4CCC(C3)N4)nc2c1OC(F)(F)F)N1CCC1 [Example 192, (2-(3,8-Diazabicyclo[3.2.1]octan-3-yl)-7-(thiazol-2-yl)-4-(trifluoromethoxy)benzo[d]oxazol-5-yl) (azetidin-1-yl)methanone] | < 100 |
| CNC(=O)c1cc(-c2nccs2)c2oc(N3CC4CCC(C3)N4)nc2c1 [Example 100, 2-(3,8-Diazabicyclo[3.2.1]octan-3-yl)-N-methyl-7-(thiazol-2-yl)benzo[d]oxazole-5-carboxamide] | < 100 |

| SMILES | IC50 [nM] |
| --- | --- |
| CC(C)(O)c1cc(-c2nccs2)c2oc(N3CC4CCCC(C3)N4)nc2c1OC(F)(F)F [Example 197, 2-(2-(3,9-Diazabicyclo[3.3.1]nonan-3-yl)-7-(thiazol-2-yl)-4-(trifluoromethoxy)benzo[d]oxazol-5-yl)propan-2-ol] | < 100 |
| OC(c1cc(-c2nccs2)c2oc(N3CC4CCC(C3)N4)nc2c1OC(F)(F)F)C(F)F (stereo not drawn) [Example 276, 1-(2-(3,8-Diazabicyclo[3.2.1]octan-3-yl)-7-(thiazol-2-yl)-4-(trifluoromethoxy)benzo[d]oxazol-5-yl)-2,2-difluoroethan-1-ol] | < 100 |
| CC(O)c1cc(-c2nccs2)c2oc(N3CC4CCC(C3)N4)nc2c1C(F)(F)F (stereo not drawn) [Example 181, 1-(2-(3,8-Diazabicyclo[3.2.1]octan-3-yl)-7-(thiazol-2-yl)-4-(trifluoromethyl)benzo[d]oxazol-5-yl)ethan-1-ol] | < 100 |
| COC(C)c1cc(-c2nccs2)c2oc(N3CC4CCC(C3)N4)nc2c1OC(F)(F)F (stereo not drawn) [Example 210, 2-(3,8-Diazabicyclo[3.2.1]octan-3-yl)-5-(1-methoxyethyl)-7-(thiazol-2-yl)-4-(trifluoromethoxy)benzo[d]oxazole] | < 100 |
| FC(F)(F)Oc1cc(-c2nccs2)c2oc(N3CC4CCC(C3)N4)nc2c1 [Example 54, 2-(3,8-Diazabicyclo[3.2.1]octan-3-yl)-7-(thiazol-2-yl)-5-(trifluoromethoxy)benzo[d]oxazole] | < 100 |
| CC(C)c1cc(-c2nccs2)c2oc(N3CC4CCCC(C3)N4)nc2c1 [Example 24, 2-(3,9-Diazabicyclo[3.3.1]nonan-3-yl)-5-isopropyl-7-(thiazol-2-yl)benzo[d]oxazole] | < 100 |
| CC(O)C(F)(F)Oc1ccc(-c2cscn2)c2oc(N3CC4CCC(C3)N4)nc12 (stereo not drawn) [Example 310, 1-((2-(3,8-Diazabicyclo[3.2.1]octan-3-yl)-7-(thiazol-4-yl)benzo[d]oxazol-4-yl)oxy)-1,1-difluoropropan-2-ol] | < 100 |
| OC1(c2cc(-c3cscn3)c3oc(N4CC5CC(C4)N5)nc3c2OC(F)(F)F)CC1 [Example 299, 1-(2-(3,6-Diazabicyclo[3.1.1]heptan-3-yl)-7-(thiazol-4-yl)-4-(trifluoromethoxy)benzo[d]oxazol-5-yl)cyclopropan-1-ol] | < 100 |
| CC(C)(O)c1ccc(-c2nccs2)c2oc(N3CC4CCC(C3)N4)nc12 [Example 247, 2-(2-(3,8-Diazabicyclo[3.2.1]octan-3-yl)-7-(thiazol-2-yl)benzo[d]oxazol-4-yl)propan-2-ol] | < 100 |
| c1csc(-c2ccc(OC3CCC3)c3nc(N4CC5CCC(C4)N5)oc23)n1 [Example 81, 2-(3,8-Diazabicyclo[3.2.1]octan-3-yl)-4-cyclobutoxy-7-(thiazol-2-yl)benzo[d]oxazole] | < 100 |
| Oc1cc(-c2nccs2)c2oc(N3CC4CCC(C3)N4)nc2c1 [Example 63, 2-(3,8-Diazabicyclo[3.2.1]octan-3-yl)-7-(thiazol-2-yl) benzo[d]oxazol-5-ol] | < 100 |
| CC(O)c1cc(-c2nccs2)c2oc(N3CC4CC(C3)N4)nc2c1C(F)(F)F (stereo not drawn) [Example 182, 1-(2-(3,6-Diazabicyclo[3.1.1]heptan-3-yl)-7-(thiazol-2-yl)-4-(trifluoromethyl)benzo[d]oxazol-5-yl)ethan-1-ol] | < 100 |
| C[S+]([O-])c1cc(-c2nccs2)c2oc(N3CC4CC(C3)N4)nc2c1 (stereo not drawn) [Example 43, 2-(3,6-Diazabicyclo[3.1.1]heptan-3-yl)-5-(methylsulfinyl)-7-(thiazol-2-yl)benzo[d]oxazole] | < 100 |
| Oc1cc(-c2nccs2)c2oc(N3CC4CCCC(C3)N4)nc2c1 [Example 65, 2-(3,9-Diazabicyclo[3.3.1]nonan-3-yl)-7-(thiazol-2-yl) benzo[d]oxazol-5-ol] | < 100 |
| FC(F)Oc1ccc(-c2nccs2)c2oc(N3CC4CCC(C3)N4)nc12 [Example 263, 2-(3,8-Diazabicyclo[3.2.1]octan-3-yl)-4-(difluoromethoxy)-7-(thiazol-2-yl)benzo[d]oxazole] | < 100 |
| O=C(c1cc(-c2nccs2)c2oc(N3CC4CCC(C3)N4)nc2c1)N1CCOCC1 [Example 95, (2-(3,8-Diazabicyclo[3.2.1]octan-3-yl)-7-(thiazol-2-yl)benzo[d]oxazol-5-yl)(morpholino)methanone] | < 100 |
| OC(c1cc(-c2nccs2)c2oc(N3CC4CCCC(C3)N4)nc2c1)C(F)(F)F (stereo not drawn) [Example 136, 1-(2-(3,9-Diazabicyclo[3.3.1]nonan-3-yl)-7-(thiazol-2-yl)benzo[d]oxazol-5-yl)-2,2,2-trifluoroethan-1-ol] | < 100 |

Same assay, conditions: scintillation proximity assay; class symbols; read-out: PDE4 Inhibitory Activity

| SMILES | IC50 [nM] |
| --- | --- |
| NS(=O)(=O)c1ccc(-c2nccs2)c2oc(N3CC4CC(C3)N4)nc12 [Example 396, 2-(3,6-diazabicyclo[3.1.1]heptan-3-yl)-7-(thiazol-2-yl) benzo[d]oxazole-4-sulfonamide] | < 100 |
| c1csc(-c2ccc(N3CCCC3)c3nc(N4CC5CC(C4)N5)oc23)n1 [Example 415, 2-(3,6-diazabicyclo[3.1.1]heptan-3-yl)-4-(pyrrolidin-1-yl)-7-(thiazol-2-yl)benzo [d]oxazole] | < 100 |
